Source: patent publication US8790719B2, “Phytocannabinoids in the treatment of cancer” (GW Pharma Limited, priority 2010, dated 2014)
Where two headings read alike, the source gives them in different places.

Experiments:
DU-145 = experiment: Cell vitality (MTT assay), DU-145; type: cell-based; conditions: Homo sapiens
Experimental: (§1) Cells were seeded in presence of FBS in 6 wells multiwell with a density of 8×10^4 cells/well (DU-145) or 1×10^5 cells/well (LNCaP). After 7 hours, cells were starved of dihydrotestosterone (DHT) for 15 hours and treated with increased concentrations of compounds for 24 or 48 hours (absence of serum was maintained during the treatments). Cell viability was assessed by MTT staining.
(§2) Phytocannabinoid BDS and their respective isolated phytocannabinoids were tested in both the hormone-insensitive (DU-145) prostate cancer cells and hormone-sensitive (LNCaP) prostate cancer cells. Three different phytocannabinoids were chosen for this experiment: CBG BDS and isolated compound, CBC BDS and isolated compound and CBD BDS and isolated compound.
(§3) The experiment was repeated in the hormone-insensitive (DU-145) prostate cancer cells and hormone-sensitive (LNCaP) prostate cancer cells that had not been starved of DHT. Here just the CBG BDS and isolated CBG are illustrated in Table 7.2 below.

LNCaP = experiment: Cell vitality (MTT assay), LNCaP; type: cell-based; conditions: Homo sapiens, read-out: IC50 on cell vitality
Experimental: as §1, §2, §3

[1] = molecular target: T1, monoacylglyceride lipase (MAGL) (Homo sapiens, UniProt Q99685); experiment: Inhibition of monoacylglyceride lipase (MAGL); type: biochemical
T1 sequence (Q99685 1-303): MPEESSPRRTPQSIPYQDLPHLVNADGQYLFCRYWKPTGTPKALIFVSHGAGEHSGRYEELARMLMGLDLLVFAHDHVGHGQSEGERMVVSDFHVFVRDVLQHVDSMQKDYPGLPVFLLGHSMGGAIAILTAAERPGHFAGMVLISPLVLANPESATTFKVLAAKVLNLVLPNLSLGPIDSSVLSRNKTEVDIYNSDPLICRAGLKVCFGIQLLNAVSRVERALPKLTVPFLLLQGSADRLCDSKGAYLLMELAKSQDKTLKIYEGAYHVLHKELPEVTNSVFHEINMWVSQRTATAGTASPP
Experimental: (§4) The effects of the phytocannabinoid BDS THCA, CBN, CBGA, CBDA and CBCV were tested to determine whether they were able to inhibit the MAGL and DAGL enzymes which are able to hydrolyse the endogenous cannabinoid 2-AG to arachidonic acid and glycerol. The results generated from these experiments are detailed in Table 5.1 below.
For this experiment CBG BDS was used as this BDS was the easiest to purify and reconstitute. Four different test articles were used: CBG BDS, isolated CBG, CBG-free CBG BDS and CBG reconstituted BDS, whereby the CBG-free BDS (as prepared in Example 1) was spiked with isolated CBG at the same concentration of CBG as CBG BDS. Table 5.2 below details the data obtained.

[2] = molecular target: T2, diacylglyceride lipase (DAGL) (Homo sapiens, UniProt Q9Y4D2); experiment: Inhibition of diacylglyceride lipase (DAGL); type: biochemical
T2 sequence (Q9Y4D2 1-1042): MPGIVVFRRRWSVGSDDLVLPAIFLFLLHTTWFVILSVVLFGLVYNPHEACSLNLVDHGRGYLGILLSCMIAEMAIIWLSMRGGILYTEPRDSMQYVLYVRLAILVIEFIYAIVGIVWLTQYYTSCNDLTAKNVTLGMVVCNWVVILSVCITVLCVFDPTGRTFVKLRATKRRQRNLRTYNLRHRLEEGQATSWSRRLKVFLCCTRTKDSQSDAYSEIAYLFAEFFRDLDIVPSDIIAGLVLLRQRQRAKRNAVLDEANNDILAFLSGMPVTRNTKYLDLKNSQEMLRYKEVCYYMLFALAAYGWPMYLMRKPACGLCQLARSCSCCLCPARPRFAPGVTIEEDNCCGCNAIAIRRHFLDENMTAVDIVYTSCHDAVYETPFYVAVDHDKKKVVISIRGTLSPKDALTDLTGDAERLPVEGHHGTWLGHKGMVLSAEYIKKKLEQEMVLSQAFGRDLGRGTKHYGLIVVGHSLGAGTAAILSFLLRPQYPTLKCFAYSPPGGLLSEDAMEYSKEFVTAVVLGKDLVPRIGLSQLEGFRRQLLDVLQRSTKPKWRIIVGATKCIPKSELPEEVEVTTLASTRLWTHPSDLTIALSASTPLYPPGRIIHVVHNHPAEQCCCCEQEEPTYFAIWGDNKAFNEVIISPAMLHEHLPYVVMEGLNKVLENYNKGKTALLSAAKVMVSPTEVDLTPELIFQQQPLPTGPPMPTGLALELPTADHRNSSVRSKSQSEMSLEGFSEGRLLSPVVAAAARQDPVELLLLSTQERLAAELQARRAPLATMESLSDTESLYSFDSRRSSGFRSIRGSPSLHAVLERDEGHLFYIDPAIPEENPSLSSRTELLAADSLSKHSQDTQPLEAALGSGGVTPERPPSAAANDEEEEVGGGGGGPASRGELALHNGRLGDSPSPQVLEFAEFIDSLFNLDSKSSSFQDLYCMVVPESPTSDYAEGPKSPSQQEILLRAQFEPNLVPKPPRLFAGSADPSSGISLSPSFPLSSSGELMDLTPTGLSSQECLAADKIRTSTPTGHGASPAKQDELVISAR
Experimental: as §4

GPR55 = molecular target: T3, GPR55 (Homo sapiens, UniProt Q9Y2T6); experiment: ERK Alphascreen assay using GPR55-HEK cells; type: cell-based
T3 construct: expressed in transfected cells; host or cells: HEK cells (GPR55-HEK)
Excerpt: An ERK Alphascreen assay was undertaken using GPR55-HEK cells.

[3] = system: MDA-MB-231 breast cancer cell line; experiment: Cell viability of breast cancer cells (Alamar blue assay); type: cell-based; conditions: 72 hours
Experimental: Cells were seeded in presence of FBS in 6 wells multiwell and treated with increased concentrations of compounds for 72 hours. Cell viability was assessed by Alamar blue staining.
Isolated phytocannabinoids were tested on the MDA-MB-231 breast cancer cell line in order to determine whether phytocannabinoids were effective in other types of cancer other than prostate cancer. The different isolated phytocannabinoids chosen for this experiment were: CBGA, CBDA, CBDV, CBD, THCV and THC.

Glioma cells = experiment: Human glioma cell vitality (MTT assay); type: cell-based; conditions: read-out: IC50 on glioma cell vitality
Experimental: Cells were seeded in presence of FBS in 6 wells multiwell with a density of 8×10^4 cells/well. Glioma cells were treated with increased concentrations of compounds and cell viability was assessed by MTT staining.
CBD BDS and isolated CBD, CBG and CBDV were tested.

[4] = system: Aberrant crypt focus (ACF), polyps and tumours; experiment: Colon carcinogenesis in the mouse induced by azoxymethane; type: in vivo
Excerpt: Aberrant crypt focus (ACF), polyps and tumours were induced in the mouse by the carcinogenic substance azoxymethane. The phytocannabinoids were given (i.p.) to the mice three times per week for a period of three months. The COX-2 inhibitor celecoxib was used as a positive control.

[5] = system: hormone-insensitive prostate cancer cell line (DU-145); experiment: Chemioluminescence assay for caspase 3/7 release (apoptosis), DU-145; type: cell-based, human; conditions: high dose (25 μM), FIG. 2
Experimental: (§5) Two different concentrations of cannabinoids were tested; a low dose (10 μM) and a high dose (25 μM). The chemioluminescence that were recorded for each phytocannabinoid are detailed in FIG. 2.

[6] = system: hormone-sensitive prostate cancer cell line (LNCaP); experiment: Chemioluminescence assay for caspase 3/7 release (apoptosis), LNCaP; type: cell-based, human; conditions: high dose (25 μM), FIG. 2
Experimental: as §5

U87 glioma cells = experiment: Viability of U87 glioma cells (MTT assay), THC, CBD, TMZ alone and combined; type: cell-based, human; conditions: TMZ 100 μM alone, Table 12.2
[7] = system: human glioma xenograft tumours; experiment: Human glioma xenograft tumour volume; type: in vivo; design: unit not given here; conditions: TMZ (100 μM) alone; Table 13.2
Experimental: The phytocannabinoids were also tested with the TMZ as is detailed in Table 13.2 below.

[8] = system: hormone sensitive LNCaP cells; conditions: 24-48 hours; cited from earlier work
[9] = system: hormone-sensitive prostate cancer cell line (LNCaP); experiment: Subcutaneous xenograft model, hormone-sensitive prostate cancer (LNCaP); type: in vivo, mice; conditions: taxotere 5 mg/kg i.v. weekly, alone
Experimental: Cancer cells were maintained in vitro in an appropriate culture medium and were harvested, washed in culture medium and re-suspended in matrigel for ready for in vivo administration. 1-2×10^7 cells in 200 μl were injected subcutaneously into the left flank of mice. The mice were anaesthetised and a 0.5 mg 5-alpha-dihydrotestosterone pellet (21-day release) implanted subcutaneously into the scruff of each mouse to encourage tumour growth, and the wound was closed.
Once the implanted tumour volume reached between 100-200 mm (2-3 weeks) mice were allocated to their treatment groups. Treatment commenced on Day 17. The phytocannabinoid BDS was administered i.p. once daily at doses of 1, 10 & 100 mg/kg cannabinoid BDS for a further 25 days.
In a further experiment the chemotherapeutic agent taxotere (5 mg/kg) i.v. was administered weekly, alone or in combination with 100 mg/kg phytocannabinoid BDS.
Mice were evaluated daily by an experienced technician for 4-5 weeks. Tumour dimensions were recorded at day 7 (calliper measurement of length and width and tumour cross-sectional area and volume calculated) and recorded three times weekly and body weight measured weekly.

[10] = DU-145, 24 h, read-out: IC50 on cell vitality
[11] = DU-145, 48 h, read-out: IC50 on cell vitality
[12] = at 50 μM, read-out: Max concentration tested (% inhibition), MAGL
[13] = read-out: Max concentration tested (% inhibition), DAGL

T3 sequence (Q9Y2T6 whole entry, species assumed): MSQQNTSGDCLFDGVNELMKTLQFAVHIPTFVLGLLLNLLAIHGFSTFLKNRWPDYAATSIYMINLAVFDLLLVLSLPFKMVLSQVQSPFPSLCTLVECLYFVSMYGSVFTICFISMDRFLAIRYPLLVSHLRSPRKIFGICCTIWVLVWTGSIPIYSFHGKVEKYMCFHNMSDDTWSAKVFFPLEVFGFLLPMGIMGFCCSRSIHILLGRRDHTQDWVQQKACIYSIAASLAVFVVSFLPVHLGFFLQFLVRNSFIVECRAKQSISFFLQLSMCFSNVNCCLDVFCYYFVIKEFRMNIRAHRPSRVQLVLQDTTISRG

SMILES: CCCCCc1cc(O)c2c(c1)OC(C)(CCC=C(C)C)C=C2 (stereo not shown) [CBC, Cannabichromene]
- IC50 (DU-145; [10]): 7.5 µM
- IC50 (DU-145; [11]): 5.6 µM
- IC50 (LNCaP; 24 h): 10.8 µM
- IC50 (LNCaP; 48 h): 6 µM

SMILES: CCCc1cc(O)c2c(c1)OC(C)(CCC=C(C)C)C=C2 (stereo not shown) [CBCV]
- IC50 ([1]; Table 5.1, read-out: MAG IC50): > 50 µM
- inhibition at 50 µM [1, 12]: 4.8%
- inhibition at 50 µM [2, 13]: 18.9%

SMILES: C=C(C)[C@@H]1CCC(C)=C[C@H]1c1c(O)cc(CCCCC)c(C(=O)O)c1O [CBDA, Cannabidiolic acid]
- Effect at GPR55 (GPR55): Antagonist
- IC50 ([1]; Table 5.1, read-out: MAG IC50): > 50 µM
- inhibition at 50 µM [1, 12]: 18.5%
- inhibition at 100 µM ([2]; at 100 μM, read-out: Max concentration tested (% inhibition), DAGL): 91.4%
- IC50 ([3]; Homo sapiens): 3.9 µM

SMILES: C=C(C)[C@@H]1CCC(C)=C[C@H]1c1c(O)cc(CCC)cc1O [CBDV, Cannabidivarin]
- Effect at GPR55 (GPR55): Antagonist
- IC50 ([3]; Homo sapiens): 5 µM
- IC50 (Glioma cells): 12.4 µM

SMILES: CCCCCc1cc(O)c(C/C=C(\C)CCC=C(C)C)c(O)c1 [CBG, Cannabigerol]
- EC50 ([1]; Table 5.2, BDS vs isolated vs reconstituted): 195 µM
- inhibition at 100 µM ([1]; Table 5.2, read-out: Max tested on MAGL % inhibition): 31.5%
- IC50 (DU-145; [10]): 11.8 µM
- IC50 (DU-145; [11]): 5.8 µM
- IC50 (DU-145; DU-145, read-out: IC50 on cell vitality): > 25 µM
- IC50 (LNCaP; 24 h): 10.8 µM
- IC50 (LNCaP; 48 h): 8.1 µM
- IC50 (LNCaP): > 25 µM
- protective effect against the experimentally induced colon carcinogenesis ([4]; FIG. 6 a)): most statistically significant results
- formation of ACF with 4 or more crypts ([4]; FIG. 6 b)): no ACF with greater than 4 crypts
- numbers of tumours per animal ([4]; i.p. three times per week for three months; FIG. 5 c), FIG. 6 c)): no tumours were produced
- IC50 (Glioma cells): 12.4 µM

SMILES: CCCCCc1cc(O)c(C/C=C(\C)CCC=C(C)C)c(O)c1C(=O)O [CBGA]
- Effect at GPR55 (GPR55): Inverse agonist
- IC50 ([1]; Table 5.1, read-out: MAG IC50): > 50 µM
- Max concentration tested (% inhibition), MAGL ([1]; at 50 μM): (17.2%)
- IC50 ([2]; Table 5.1): 30 µM
- Max concentration tested (% inhibition), DAGL ([2]; at 100 μM): (67.5%)
- IC50 [3]: 2.2 µM

SMILES: CCCc1cc(O)c(C/C=C(\C)CCC=C(C)C)c(O)c1 [CBGV, Cannabigerol propyl variant]
- Effect at GPR55 (GPR55): Antagonist

SMILES: CCCCCc1cc(O)c2c(c1)OC(C)(C)c1ccc(C)cc1-2 [CBN, Cannabinol]
- IC50 [1]: > 50 µM
- inhibition at 50 µM [1, 12]: 31.5%
- inhibition at 50 µM [2, 13]: 26.9%

SMILES: CCCCCc1cc2c(c(O)c1C(=O)O)[C@@H]1C=C(C)CC[C@H]1C(C)(C)O2 [THCA, Tetrahydrocannabinolic acid]
- IC50 [1]: 46 µM
- inhibition at 100 µM ([1]; read-out: Max concentration tested (% inhibition), MAGL): 81.9%
- inhibition at 50 µM [2, 13]: 79.3%

SMILES: CCCc1cc(O)c2c(c1)OC(C)(C)[C@@H]1CCC(C)=C[C@@H]21 [THCV, Tetrahydrocannabivarin]
- pro-apoptotic effect (chemioluminescence, caspase 3/7 release) [5]: apotosis levels over that of the control
- Effect at GPR55 (GPR55): Antagonist (at low concentrations)
- IC50 ([3]; Homo sapiens): 6.5 µM

SMILES: CCCc1cc2c(c(O)c1C(=O)O)[C@@H]1C=C(C)CC[C@H]1C(C)(C)O2 [THCVA, Tetrahydrocannabivarinic acid]
- pro-apoptotic effect (chemioluminescence, caspase 3/7 release) [5]: highest pro-apoptotic effects
- pro-apoptotic effect (chemioluminescence, caspase 3/7 release) [6]: highest pro-apoptotic effect

SMILES: Cn1nnc2c(C(N)=O)ncn2c1=O [TMZ, temazolamide, reference compound]
- Cell Viability (%) (U87 glioma cells): 82%
- Tumour volume (increase from day 1) [7]: 4.1

SMILES: Cc1c(C(=O)c2cccc3ccccc23)c2cccc3c2n1[C@H](CN1CCOCC1)CO3 [WIN-55,212-2]
- inhibition of cell growth [8]: inhibition of cell growth

SMILES: CC(=O)O[C@@]12CO[C@@H]1C[C@H](O)[C@@]1(C)C(=O)[C@H](O)C3=C(C)[C@@H](OC(=O)[C@H](O)[C@@H](NC(=O)OC(C)(C)C)c4ccccc4)C[C@@](O)([C@@H](OC(=O)c4ccccc4)[C@H]21)C3(C)C [taxotere]
- growth rate and terminal tumour volume [9]: significantly inhibited both growth rate and terminal tumour volume
